Here are results for eleven molecules from publication PMC11052913, “Determination of Regorafenib monohydrate (colorectal anticancer drug) solubility in supercritical CO2: Experimental and thermodynamic modeling” (Heliyon, 2024).

For data set [1] the following is noted: cited from earlier work.
Details of data set [2]: method as in PMID 28214672, doi:10.1016/j.jddst.2019.101462. The note with it: pH 6.5 and 22–23 °C; cited from earlier work.
A short description of data set [3]: Solubility of REG in supercritical CO2, static isobaric-isothermal method with UV-Vis quantification. It is filed as physicochemical. How it is done:
The solubility of REG in ScCO2 was measured using a pilot-scale apparatus, as depicted in Fig. 1. […] An F-1 CO2 cylinder, an F-2 needle valve, an F-3 molecular sieve filter, an F-4 refrigeration unit, an F-5 high-pressure pump, an F-6 air compressor, an F-7 oven, an F-8 magnetic stirrer, an F-9 high-pressure equilibrium cell, an F-10 3-position valve, and an F-16 back-pressure valve were all part of the apparatus.
In each experimental trial, a consistent amount of 1 g of the REG drug was administered into the immobile cell, which was subsequently positioned inside a thermal chamber. The aforementioned measure was enacted with the purpose of ensuring that the temperature remains within a narrow range of ±0.1 K from the designated experimental point. At both cell ends, stainless-steel sintered filters were added to limit undissolved REG. After that, high-pressure CO2 was poured into the cell and allowed to sit for 70 min in order to obtain saturation. Based on earlier studies, we know that 60 min is sufficient to achieve balance. The isobaric-isothermal category includes this kind of measurement. Throughout the experiment, the target temperatures and pressure levels were kept within ±0.1 K and ±0.1 MPa, respectively, for every data point. Following the triplicate execution of the experiments, the average solubility values were computed.
After reaching equilibrium, we used a 2-position 6-way port valve to collect 600 μL of saturated ScCO2 samples. The materials were thereafter transferred into a vial that was pre-filled with dimethyl sulfoxide (DMSO). The flow rate was managed by means of a micrometer valve. Each experiment was finished with the flow line being purified with 1 mL of DMSO after 5 mL of the solution had been collected. Using a UNICO-4802 UV–Vis spectrophotometer set to a peak wavelength (λmax) of 275 nm, we examined the absorbance of REG in DMSO for solubility assessment. The solubility of REG in ScCO2 was determined according to a given equation. The amount of REG dissolved in ScCO2, denoted as (y2), was measured in terms of mole fraction. […] The quantification of the dissolved substance was accomplished through the measurement of UV absorbance. The calculation of the moles of REG (nREG) and CO2 (n1) in the loop was performed as follows:(1) nREG=CREG(g/L).VREG(L)/MREG(g/mol) (2) n1=V1(L).ρ1(g/L)/M1(g/mol)
The concentration of REG (g/L) in the collection vial is denoted as CREG. The sampling loop and the collection vial are represented by V1 (L) and VREG (L), respectively. The symbols M1 and MREG represent the molar masses of carbon dioxide (CO2) and a substance denoted as REG, respectively. The method out-lined in references was employed to determine the equilibrium mole fraction of REG, denoted as y2, in supercritical CO2 under varying temperatures and pressures.(3) y2=nREG/n1+nREG
The following equation was applied to determine the solubility of REG, S (in g/L), in the supercritical CO2(4) S=CREG(g/L).VREG(L)/V1(L)
Eq. (4) can be reformulated as below:(5) S=ρMREG/M1y2/(1−y2) In fact, Eq. (5) is another form of Eq. (4).

Data set [4] can be described thus: Total, vaporization and solvation enthalpies of the REG-ScCO2 system estimated from Chrastil, Kumar-Johnston and Bartle et al. model constants. It is filed as physicochemical. From the text: In Fig. 3, the self-consistency test of experimental REG solubility data employed the models Chrastil, Kumar-Johnston, Bartle et al., and Mendez-Teja. […] In other words, wherein all data points at different isotherms falls onto a single straight line, indicating the self-consistency test for the solubility of REG in ScCO2 at different temperatures.
Analogous techniques were applied for Galantamine, Clonazepam, Lansoprazole, and Esomeprazole. Finally, the total (ΔHtot-=-41.16 kJ/mol), vaporization (ΔHvap-=-60.04 kJ/mol), and solvation (ΔHsol-=-18.88 kJ/mol) enthalpies for the REG-ScCO2 binary system were estimated as part of this work. More detail of enthalpies of the REG can be seen in Table 4.

The structures appear in SMILES notation. Structures can show the parent of a compound that is named as a salt. Where two headings read alike, the source gives them in different places. Marks after values point to notes of the source that are not given here.

For the molecule `CS(=O)(=O)OCCCCOS(C)(=O)=O` [Busulfan], the “Mole fraction solubility in ScCO2” value in data set [1] (N 32, T 308-328 K, P 12-40 MPa, ref [5] of supplement) is 32.7-865 (×10^6) mole fraction.
Take `O=C1CN=C(c2ccccc2Cl)c2cc([N+](=O)[O-])ccc2N1` [Clonazepam]: the “Mole fraction solubility in ScCO2” value in data set [1] (N 28, T 308-338 K, P 12-30 MPa, ref [1] of supplement) is 3.9-72.6 (×10^6) mole fraction.
Consider `COc1cc2nc(N3CCN(C(=O)c4ccco4)CC3)nc(N)c2cc1OC` [Prazosin Hydrochloride], for which, in data set [1] (N 24, T 328-338 K, P 12-27 MPa, ref [12] of supplement), the “Mole fraction solubility in ScCO2” value was 1.5-72 (×10^6) mole fraction.
Consider `Cc1ccc(C)c(OCCCC(C)(C)C(=O)O)c1` [Gemfibrozil], for which, in data set [1] (N 21, T 308-328 K, P 10.01-22.02 MPa, gemfibrozil, ref [7] of supplement), the “Mole fraction solubility in ScCO2” value was 29.4-4190 (×10^6) mole fraction.
Consider `CNC(=O)c1cc(Oc2ccc(NC(=O)Nc3ccc(Cl)c(C(F)(F)F)c3)c(F)c2)ccn1` [Regorafenib monohydrate, 4-(4-(3-(4-chloro-3-(trifluoromethyl)phenyl)ureido)-3-fluorophenoxy)-N-methylpicolinamide], for which, in data set [2], the solubility in water is 0.12 µg/mL. Also, the S (equilibrium solubility) in ScCO2 in data set [3] (308 K, 120 bar, CO2 density 769 kg/m^3) stood at 0.0106 g/L; in data set [3] (308 K, 150 bar, CO2 density 817 kg/m^3) it was 0.0155 g/L; in data set [3] (308 K, 180 bar, CO2 density 849 kg/m^3) it was 0.018 g/L; in data set [3] (308 K, 210 bar, CO2 density 875 kg/m^3), 0.0226 g/L; in data set [3] (308 K, 240 bar, CO2 density 896 kg/m^3), 0.0292 g/L; in data set [3] (308 K, 270 bar, CO2 density 914 kg/m^3), 0.0315 g/L. Also, the S (equilibrium solubility) in ScCO2 worked out at 0.0072 g/L in data set [3] (318 K, 120 bar, CO2 density 661 kg/m^3); 0.0098 g/L in data set [3] (318 K, 150 bar, CO2 density 744 kg/m^3); 0.0124 g/L in data set [3] (318 K, 180 bar, CO2 density 791 kg/m^3); 0.0287 g/L in data set [3] (318 K, 210 bar, CO2 density 824 kg/m^3); 0.0319 g/L in data set [3] (318 K, 240 bar, CO2 density 851 kg/m^3); 0.0372 g/L in data set [3] (318 K, 270 bar, CO2 density 872 kg/m^3). In addition, the S (equilibrium solubility) in ScCO2 turned out to be 0.0036 g/L in data set [3] (328 K, 120 bar, CO2 density 509 kg/m^3); 0.007 g/L in data set [3] (328 K, 150 bar, CO2 density 656 kg/m^3); 0.01 g/L in data set [3] (328 K, 180 bar, CO2 density 725 kg/m^3); 0.0331 g/L in data set [3] (328 K, 210 bar, CO2 density 769 kg/m^3); 0.0371 g/L in data set [3] (328 K, 240 bar, CO2 density 802 kg/m^3); 0.0392 g/L in data set [3] (328 K, 270 bar, CO2 density 829 kg/m^3). For the same molecule, the S (equilibrium solubility) in ScCO2 in data set [3] (338 K, 120 bar, CO2 density 388 kg/m^3) is 0.0013 g/L; in data set [3] (338 K, 150 bar, CO2 density 557 kg/m^3) it was 0.0037 g/L; in data set [3] (338 K, 180 bar, CO2 density 652 kg/m^3), 0.0072 g/L; in data set [3] (338 K, 210 bar, CO2 density 710 kg/m^3), 0.0346 g/L; in data set [3] (338 K, 240 bar, CO2 density 751 kg/m^3), 0.041 g/L; in data set [3] (338 K, 270 bar, CO2 density 783 kg/m^3), 0.0553 g/L. Besides, in data set [3] (isotherms 308–338 K), the “crossover pressure of the solubility isotherms in ScCO2” value was 18–21 MPa. The “maximum equilibrium mole fraction in ScCO2” value in data set [3] (over 308–338 K and 120–270 bar, maximum at 338 K and 27 MPa, listed as REG) is reported as 6.44×10^−6 mole fraction. Also, the “minimum equilibrium mole fraction in ScCO2” value in data set [3] (over 308–338 K and 120–270 bar, minimum at 338 K, listed as REG) was 3.06×10^−7 mole fraction. Besides, the “vaporization enthalpy ΔHvap” value in data set [4] (based on Bartle et al. model) is 60.04 kJ/mol. The ΔHtot in data set [4] (based on Kumar-Johnston model) is given as 41.14 kJ/mol; in data set [4] (based on the Chrastil model) it was 41.17 kJ/mol.
`Cc1ccc(C(=O)O)cc1` [4-Methylbenzoic acid]: in data set [1] (N 18, T 313-333 K, P 11-24.6 MPa, ref [3] of supplement), the “Mole fraction solubility in ScCO2” value is reported as 43-702 (×10^6) mole fraction.
`CC(C)(Oc1ccc(Cl)cc1)C(=O)O` [Clofibric acid]: the “Mole fraction solubility in ScCO2” value in data set [1] (N 21, T 308-328 K, P 10.01-22.02 MPa, clofibric acid, ref [7] of supplement) is 32.1-856 (×10^6) mole fraction.
With `O=C(O)c1ccccc1Nc1cccc(Cl)c1Cl` [Clofenamic acid], in data set [1] (N 24, T 313-333 K, P 12-36 MPa, ref [9] of supplement), the “Mole fraction solubility in ScCO2” value was 1.54-35.44 (×10^6) mole fraction.
Turning to `CC(=O)N(c1ccccc1)c1ccc(C)cc1` [4-Methyl-N-phenylacetanilide], the “Mole fraction solubility in ScCO2” value in data set [1] (N 21, T 308-328 K, P 12.16-22.5 MPa, ref [2] of supplement) is on record as 38.4-480.2 (×10^6) mole fraction.
In the case of `Cc1nc(Nc2ncc(C(=O)Nc3c(C)cccc3Cl)s2)cc(N2CCN(CCO)CC2)n1` [Dasatinib monohydrate], the “Mole fraction solubility in ScCO2” value in data set [1] (N 24, T 328-338 K, P 12-27 MPa, ref [11] of supplement) is 0.45 - 9.08 (×10^6) mole fraction.
Turning to `Nc1nnc(-c2cccc(Cl)c2Cl)c(N)n1` [Lamotrigine], the “Mole fraction solubility in ScCO2” value in data set [1] (N 36, T 318-338 K, P 12.16-35.46 MPa, ref [8] of supplement) is 0.3-5.9 (×10^6) mole fraction.
